Data reported in US12480155B2, “Nicking enzymes” (LumiraDx UK Ltd., priority 2019, dated 2025).
Like-named read-outs stand apart in the source and are kept apart here.

Tests used:
[1] = tested on: STAR reaction (Nt.BstNBI nicking endonuclease, Bst X DNA polymerase; Chlamydia trachomatis cryptic plasmid target)
Method: The STAR mixture contained two primers, polymerase, and nicking enzyme (referenced above). Reactions were performed in a final volume of 25 μl, including 1.0 μM of the forward primer, 0.5 μM of the reverse primer, 0.25 μM molecular beacon, 10 μl STAR Master Mix and 5 μl DNA sample. STAR master mix contained the following reagents; 12 mM MgSO4, 90 mM Tris-HCl (pH 8.5), 300 μM each dNTPs, 20 mM (NH4)2SO4, 15 mM Na2SO4, 2 mM. DTT, 0.01% Triton X-100, 15 U nicking endonuclease, 60 U polymerase. […] The temperature of the reactions was controlled, with a relatively high initiation temperature followed by a gradual drop over time, for optimal STAR activity. The initiation phase, primarily involving polymerase activity, was at the elevated temperature of 60° C. for 15 seconds. […] Amplification and STAR product detection were performed with the Agilent Mx3005P qPCR apparatus (Agilent).

[2] = tested on: Nb.BbvCI nicking endonuclease; assay: Nicking Enzyme Activity Assay (NAA) with Nb.BbvCI under isothermal condition; format: biochemical; settings: 40 ml RbCl (so in the source), 1x CutSmart Buffer, isothermal 50 °C; four replicates vs control
Method: The assay comprises use of the following oligonucleotide probe (DLPFQ) (SEQ ID NO: 10 5′/56-FAM/[…].[…]/3BHQ_1/-3′). The oligonucleotide forms a molecular beacon-like probe in solution. […] Upstream of the nicking enzyme binding site is a 5′ fluorophore.
The reactions are run using an isothermal temperature profile, 50° C. […] Each reaction assessed kinetics, enzyme performance, and signal fluorescence.

[3] = tested on: Nt.BstNBI nicking endonuclease; settings: 15 mM Rb2SO4 vs no rubidium; STAR temperature profile; six replicates
Method: The template oligo has a nicking site for nicking endonuclease activity and downstream a 3′ quencher. The priming oligo has the complementary nicking site sequence and a 5′ fluorophore. When in solution the two form a complex that completes a nicking binding site allowing for the nicking endonuclease to cut. The oligonucleotide quencher 5′ of the nick site, following a nick by a nicking endonuclease, now has a low melting temperature. Because the reaction is performed above this melting temperature, the shortened fragment containing the quencher is released from the complex generating fluorescence.
The basic NAA mixture contained the template oligo (NEQ) with a 3′ modification, and the priming oligo (POF) with a 5′-FAM modification which anneals to the template, and a nicking endonuclease (referenced above). The reactions were performed in a final volume of 25 μl, including 1.3 μM NEQ, 1.6 μM POE, and 1×NAA Master Mix. At a 1× concentration, the NAA master mix contained the following reagents; 12.5 mM MgSO4, 90 mM Tris-HCl (pH 8.5), 15 mM NH4CH3CO2, 15 mM Na2SO4, 5 mM DTT, 0.2 mg/ml BSA, 0.02% Triton X-100, 15 mM Rb2SO4, 10 mM L-Threonine, and 0.008 U/μl nicking endonuclease. […] The NAA was performed with the Agilent Mx3005P qPCR apparatus (Agilent). […] Each reaction assessed amplification kinetics, enzyme performance, and signal fluorescence.

[4] = tested on: Nb.BsmI nicking endonuclease; settings: 20 mM Rb2SO4 vs control; STAR temperature profile; average of six replicates
Text: The modified NAA was run with and without rubidium using the following conditions.
The Nb.BsmI recognition sequence is GAATG_CN. (The underscore indicates the nick site). The oligonucleotide contains self-complementary sequences and forms a molecular beacon-like probe in solution. The probe has a nicking site for nicking endonuclease activity and a 3′ quencher. Upstream of the nicking binding site is a 5′ fluorophore. When in solution a complex is formed that completes a nicking binding site allowing for the nicking endonuclease to nick. Nb.BsmI is a bottom cutter and therefore will cut on the opposite strand of the nicking binding site. The oligonucleotide quencher 3′ of the nick site, following a nick by a nicking endonuclease, now has a low melting temperature. Because the reaction is performed above this melting temperature, the shortened fragment containing the quencher is released from the complex, generating fluorescence.
The basic NAA mixture contained the probe oligo (DLPFQ) with a 5′-FAM modification and a 3′-BHQ1 modification which folds on itself, and a nicking endonuclease (referenced above). […] The reactions were performed in a final volume of 25 μl, including different concentrations of DLPFQ depending on the nicking enzyme used, and 1×NAA Master Mix. […] Each reaction assessed kinetics, enzyme performance, and signal fluorescence.

Bst X DNA polymerase = settings: 15 mM Rb2SO4 vs no added rubidium; STAR temperature profile; six replicates
Text: The NEF has a 5′ fluorophore, POQ has a 3′ quenching moiety that absorbs the photons released by the 5′ template oligo fluorophore. The PO serves as the initiation site for a strand displacement polymerase to extend and displace the quenching oligo allowing for fluorescence to be generated due to the quenching oligo no longer being in proximity to the template oligo.
The basic PAA mixture contains a template oligo (NEF) with a 5′-FAM modification, a priming oligo (PO) which anneals to the template's 3-end, a quenching oligo (POQ) with a 3′-BHQ1 modification which anneals to the template's 5′-end, and a polymerase (referenced above). The reactions were performed in a final volume of 25 μl, including 0.2 μM NEF, 0.3 μM PO, 0.7 μM POQ, and 1×PAA Master Mix. At a 1× concentration, the PAA master mix contained the following reagents; 12.5 mM MgSO4, 90 mM Tris-HCl (pH 8.5), 300 μM each dNTPs, 15 mM NH4CH3CO2, 15 mM Na2SO4, 5 mM DTT, 0.2 mg/ml BSA, 0.02% Triton X-100, 15 mM Rb2SO4, 10 mM L-Threonine, and 0.03 U/μl polymerase. […] The PAA was performed with the Agilent Mx3005P qPCR apparatus (Agilent). […] Each reaction assessed amplification kinetics, enzyme performance, and signal fluorescence.

[5] = tested on: isothermal amplification reaction (nicking endonuclease, polymerase; primers of Example 1)
Method: The basic mixture contains two primers, polymerase, and nicking enzyme (referenced above). […] The reactions were performed in a final volume of 25 μM, including 1.0 μM of the forward primer, 0.5 μM of the reverse primer, 0.25 μM molecular beacon, 10 μM Master Mix and 5 μl DNA sample. The master mix contained the following reagents; 12.5 mM MgSO4, 90 mM Tris-HCl (pH 8.5), 300 μM each dNTPs, 40 mM NH4OAc, 15 mM Na2SO4, 2 mM DTT, 0.01% Triton X-100, 15U nicking endonuclease, 60 U polymerase. […] Amplification and product detection were performed with the Agilent Mx3005P qPCR apparatus (Agilent).

CC(=O)[O-].[K+] [potassium acetate]
effect on STAR (ion replacement) ([1]; salts replaced in buffer, various concentrations): neither of which improved STAR

[Cl-].[Rb+] [rubidium chloride]
nicking enzyme activity (fluorescence) [2]: increases the activity of Nb.BbvCI nicking endonuclease

O=S(=O)([O-])[O-].[Rb+].[Rb+] [rubidium sulfate]
nicking enzyme activity (fluorescence) [3]: significantly increased the activity of the nicking enzyme | nicking enzyme activity (fluorescence) [4]: increases the activity of this other nicking endonuclease | polymerase activity (fluorescence) (Bst X DNA polymerase): does not change the activity of the polymerase in any significant manner | grouping of replicate sample results in STAR ([1]; 50 mM rubidium sulfate vs control group): more tightly grouped than with the control group | effect on STAR amplification ([1]; 50 mM rubidium sulfate vs no rubidium control): detrimental to amplification, slowing the reaction | effect on STAR reactions ([1]; 10 to 20 mM rubidium sulphate vs no rubidium control, 100 copies target): improved STAR reactions | performance of 10 copy isothermal reaction ([5]; 15 mM of rubidium sulfate (so in the source), compared with 100 copy reaction without rubidium sulfate): made the 10 copy reaction perform similar to the 100 copy reaction without rubidium sulfate | effect on isothermal amplification reaction ([5]; 20 mM rubidium sulfate vs without, 100 and 10 copies template, average of 4 replicates): improves the isothermal reaction | tightness of replicates in isothermal amplification ([5]; with vs without rubidium, data not shown): tighter than without rubidium

CC(=O)[O-].CC(=O)[O-].CC(=O)[O-].[Sc+3] [scandium acetate]
effect on STAR (ion replacement) ([1]; all concentrations): fully inhibited the reaction

CC(=O)[O-].CC(=O)[O-].[Sr+2] [strontium acetate]
effect on STAR (ion replacement) ([1]; 10 mM): possibly slightly slowed the reaction | effect on STAR (ion replacement) ([1]; 20 and 50 mM): fully inhibited the reaction
